According to patent US20260041679A1, “METHOD OF TREATING HYPERTENSION WITH THE ALDOSTERONE SYNTHASE INHIBITOR BAXDROSTAT” (CINCOR PHARMA, INC., priority 2022, published 2026):

Assay: Multiple ascending dose study, safety (Example 2)
Type: in vivo, human
Details: 0.5 to 5.0 mg once daily, 10 days
Method: This randomized, double-blind, placebo-controlled phase 1 study evaluated the safety, pharmacokinetics, and pharmacodynamics of multiple ascending doses of baxdrostat in healthy volunteers. Fifty-six subjects were randomized to receive oral baxdrostat (0.5, 1.5, 2.5, or 5.0 mg) or placebo once daily for ten days and were placed on either a low salt or normal salt diet for the duration of the study. In particular, subjects were randomized into 5 cohorts to receive baxdrostat or placebo once daily for 10 days. Cohorts 1 and 2 were placed on a low salt diet to stimulate aldosterone production and were administered 2.5 or 5.0 mg oral baxdrostat, respectively. Cohorts 1 and 2 also underwent an adrenocorticotropic hormone (ACTH) challenge to increase aldosterone and cortisol levels to evaluate the specificity of baxdrostat for targeting aldosterone synthase. Cohorts 3, 4, and 5 were placed on a normal salt diet and were administered 1.5, 2.5, or 0.5 mg oral baxdrostat, respectively. Blood samples were collected prior to and after dosing on days 1 and 10 for measurement of plasma baxdrostat concentrations to characterize single-dose and steady-state pharmacokinetics. Pharmacodynamic measurements included plasma aldosterone, cortisol, and electrolytes. Safety assessments included physical examination, electrocardiograms, orthostatic vital signs, and clinical laboratory evaluations.

CCC(=O)N[C@@H]1CCCc2c(-c3ccc4c(c3)CCC(=O)N4C)cncc21 [baxdrostat, (R)—N-(4-(1-methyl-2-oxo-1,2,3,4-tetrahydroquinolin-6-yl)-5,6,7,8-tetrahydroisoquinolin-8-yl) propionamide]
deaths or serious adverse events: no deaths or serious adverse events
severity of treatment-emergent adverse events: mild in severity
